Assay results reported in patent publication US20090005309A1, “SUBSTITUTED PIPERIDINES” (AUSPEX PHARMACEUTICALS, INC., priority 2007, published 2009).
Like-named read-outs stand apart in the source and are kept apart here.

Experiments:
[1] = target: CYP2C19 (Homo sapiens, UniProt P33261); assay: In vitro inhibition of human cytochrome P450 CYP2C19 (fluorometric, 3-cyano-7-ethoxycoumarin substrate)
Description: (§1) In Vitro Inhibition of Human Cytochrome P450 Enzymes
(§2) Solution A: NADPH-Regenerating System
To a glass tube on ice were added sequentially: Water (8 mL) in NADP+ (20 mg), glucose-6-phosphate (20 mg), magnesium chloride hexahydrate (13.3 mg) and glucose-6-phosphate dehydrogenase (60 units).
Solution A was transferred to a 96-well black plate (80 microliter per well), followed by various concentrations of a solution of paroxetine in 20% acetonitrile-water (20 microliter per well). The reaction was initiated by adding 100 microliter of solution B to each well of the 96-well plate. The plate was incubated for 30 minutes at 37° C. in the dark. The reaction was stopped by adding 75 microliter of stop buffer (4:1 acetonitrile-0.5 M Tris base) to each well, and the end point was measured in a fluorometer plate reader at λex=409 nm and λem=460 nm.

[2] = target: CYP2D6 (Homo sapiens, UniProt P10635); assay: In vitro inhibition of human cytochrome P450 CYP2D6 (fluorometric, 3-[2-(N,N diethyl-N-methylamino)ethyl]-7-methoxy-4-methylcoumarin substrate); format: in vitro ADME; conditions: for IC50: 40 minutes at 37° C.; for times the amount of compound needed to inhibit CYP2D6 than non-isotopically enriched zamifenacin: ratio versus non-isotopically enriched zamifenacin (IC50 0.33 μM)
CYP2D6, sequence (P10635 whole entry): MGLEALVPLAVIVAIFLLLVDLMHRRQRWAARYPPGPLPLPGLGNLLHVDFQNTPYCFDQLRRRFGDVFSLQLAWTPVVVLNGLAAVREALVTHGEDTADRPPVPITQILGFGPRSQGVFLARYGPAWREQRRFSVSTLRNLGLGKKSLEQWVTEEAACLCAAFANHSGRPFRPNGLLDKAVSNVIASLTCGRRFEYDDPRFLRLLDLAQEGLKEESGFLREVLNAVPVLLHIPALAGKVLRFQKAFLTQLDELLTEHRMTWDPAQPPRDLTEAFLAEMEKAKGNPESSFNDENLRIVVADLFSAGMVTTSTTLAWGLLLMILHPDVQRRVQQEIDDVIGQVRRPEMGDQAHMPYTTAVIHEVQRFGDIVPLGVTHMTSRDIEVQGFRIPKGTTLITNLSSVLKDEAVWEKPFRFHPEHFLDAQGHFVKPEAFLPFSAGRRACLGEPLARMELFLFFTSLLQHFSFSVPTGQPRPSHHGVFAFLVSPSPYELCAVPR
Description: as §1, §2
The plate was incubated for 40 minutes at 37° C. in the dark.

[3] = read-out: IC50 for inhibition of CYP2D6

CYP2C19, sequence (P33261 whole entry): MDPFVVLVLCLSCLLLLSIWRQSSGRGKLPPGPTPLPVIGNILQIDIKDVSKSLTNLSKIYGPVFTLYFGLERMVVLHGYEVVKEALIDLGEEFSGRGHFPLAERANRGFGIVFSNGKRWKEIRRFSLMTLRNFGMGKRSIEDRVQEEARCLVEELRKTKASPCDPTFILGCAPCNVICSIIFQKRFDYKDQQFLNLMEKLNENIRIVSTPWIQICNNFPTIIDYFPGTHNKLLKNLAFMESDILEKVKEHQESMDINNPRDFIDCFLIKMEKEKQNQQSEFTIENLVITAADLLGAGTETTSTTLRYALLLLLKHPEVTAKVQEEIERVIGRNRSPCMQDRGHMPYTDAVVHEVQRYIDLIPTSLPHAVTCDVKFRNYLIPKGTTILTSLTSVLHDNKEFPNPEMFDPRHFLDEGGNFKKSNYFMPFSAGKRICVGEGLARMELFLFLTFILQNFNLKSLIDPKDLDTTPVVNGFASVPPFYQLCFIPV

| IC50 [1] [µM] | IC50 [2, 3] [nM] | times the amount of compound needed to inhibit CYP2D6 than non-isotopically enriched zamifenacin [2] [times] | IC50 ([2]; positive control, read-out: IC50 for inhibition of CYP2D6 (positive control)) [nM] | SMILES |
| --- | --- | --- | --- | --- |
| 4 |  |  |  | [2H]C([2H])(c1ccc2c(c1)OCO2)C([2H])([2H])N1CCCC(OC(c2ccccc2)c2ccccc2)C1 (stereo not shown) [Example 2, d4-3-Benzhydryloxy-1-(2-benzo[1,3]dioxol-5-yl-ethyl)-piperidine] |
| 5.1 | 400 | 1.2 |  | [2H]C1([2H])Oc2ccc(CCN3CCCC(OC(c4ccccc4)c4ccccc4)C3)cc2O1 (stereo not shown) [Example 3, d2-3-Benzhydryloxy-1-(2-benzo[1,3]dioxol-5-yl-ethyl)-piperidine] |
| 5.3 | 420 | 1.3 |  | [2H]C1([2H])Oc2ccc(C([2H])([2H])C([2H])([2H])N3CCCC(OC(c4ccccc4)c4ccccc4)C3)cc2O1 (stereo not shown) [Example 4, d6-3-Benzhydryloxy-1-(2-benzo[1,3]dioxol-5-yl-ethyl)-piperidine] |
|  |  |  | 14.5 | Cc1nc2c([nH]1)c(=O)n(C)c(=O)n2Cc1ccco1 [Furafylline, reference compound] |
| 3.6 | 330 |  |  | c1ccc(C(OC2CCCN(CCc3ccc4c(c3)OCO4)C2)c2ccccc2)cc1 (stereo not shown) [zamifenacin, 3-benzhydryloxy-1-(2-benzo[1,3]dioxol-5-yl-ethyl)-piperidine, reference compound] |
